According to ChEMBL document CHEMBL4308862, “Discovery of a novel azetidine scaffold for colony stimulating factor-1 receptor (CSF-1R) Type II inhibitors by the use of docking models” (Bioorg Med Chem Lett, 2019):

Molecular target: Macrophage colony-stimulating factor 1 receptor (Homo sapiens, UniProt P07333)
Experiment: Inhibition of human CSF1R tyrosine kinase domain (538 to 972 residues) using Poly(Glu, Tyr)-biotinylated peptide as substrate preincubated for 5 mins followed by substrate addition and measured after 10 mins by HTRF assay

Sequence of Macrophage colony-stimulating factor 1 receptor (P07333 whole entry, the tested form may be a part): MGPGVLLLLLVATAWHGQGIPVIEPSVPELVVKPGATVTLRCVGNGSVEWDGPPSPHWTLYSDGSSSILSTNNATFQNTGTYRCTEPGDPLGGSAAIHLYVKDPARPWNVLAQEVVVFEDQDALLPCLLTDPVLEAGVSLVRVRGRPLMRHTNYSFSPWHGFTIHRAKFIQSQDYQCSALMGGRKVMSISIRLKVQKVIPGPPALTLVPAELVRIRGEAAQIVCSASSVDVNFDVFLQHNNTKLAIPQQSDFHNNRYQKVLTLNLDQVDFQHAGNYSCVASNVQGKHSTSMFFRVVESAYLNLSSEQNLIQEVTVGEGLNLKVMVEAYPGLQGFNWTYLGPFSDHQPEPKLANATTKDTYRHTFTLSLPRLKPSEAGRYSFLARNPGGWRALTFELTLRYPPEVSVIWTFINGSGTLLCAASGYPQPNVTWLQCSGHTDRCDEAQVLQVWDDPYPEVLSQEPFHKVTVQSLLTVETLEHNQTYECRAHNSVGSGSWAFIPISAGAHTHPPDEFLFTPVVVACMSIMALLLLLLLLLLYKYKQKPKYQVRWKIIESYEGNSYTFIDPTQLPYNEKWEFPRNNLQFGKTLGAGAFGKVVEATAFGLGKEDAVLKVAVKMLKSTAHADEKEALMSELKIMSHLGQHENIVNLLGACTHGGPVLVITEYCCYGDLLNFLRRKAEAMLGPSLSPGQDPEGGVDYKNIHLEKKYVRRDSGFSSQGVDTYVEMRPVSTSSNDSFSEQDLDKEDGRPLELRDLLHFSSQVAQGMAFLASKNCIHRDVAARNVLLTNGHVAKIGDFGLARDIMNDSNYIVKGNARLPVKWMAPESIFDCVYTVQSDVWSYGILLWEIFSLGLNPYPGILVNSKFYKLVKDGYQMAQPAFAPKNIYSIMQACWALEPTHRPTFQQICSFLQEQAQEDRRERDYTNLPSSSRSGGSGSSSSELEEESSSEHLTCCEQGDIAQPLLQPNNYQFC

CCc1ccc(COc2ccc(C3CN(Cc4ccccn4)C3)cc2OC)cc1
IC50: > 3 µM

CCc1ccc(COc2ccc(C3CN(Cc4cccnc4)C3)cc2OC)cc1
IC50: > 3 µM

CCc1ccc(COc2ccc(C3CN(c4ccccn4)C3)cc2OC)cc1
IC50: > 3 µM
